Assay results as given in patent US9370507B2, “Pyridonyl guanidine F1F0-ATPase inhibitors and therapeutic uses thereof” (Lycera Corporation, priority 2010, dated 2016).

Experiments:
F1F0-ATPase = target: T1, F1F0-ATPase (Bos taurus, UniProt P13621); assay: Inhibition of F1F0-ATPase activity in synthesizing ATP; type: biochemical; conditions: inhibition of ATP synthesis; read-out: ATP Syn IC50
T1 construct: from tissue
Experimental: (§1) The compounds listed in Table 4 were tested for activity against F1F0-ATPase by measuring the ability of the compounds to inhibit ATP synthesis. In addition, the compounds were assessed for cytotoxicity in Ramos cells Inhibition of F1F0-ATPase activity in synthesizing ATP and cytotoxicity in Ramos cells were measured according to the procedures described in K. M. Johnson et al. Chemistry & Biology 2005, 12, 485-496.

Ramos cells = assay: Cytotoxicity in Ramos cells; type: cell-based; conditions: Homo sapiens, read-out: Ramos Cell EC50
Experimental: as §1

SMILES	IC50 (F1F0-ATPase) [µM]	EC50 (Ramos cells) [µM]
CC(C)(C)N/C(=N/C(=O)c1ccc(C(F)(F)F)cc1)Nc1cccc(NS(=O)(=O)CC(F)(F)F)n1 [Compound A-129]	< 10	< 10
CCS(=O)(=O)Nc1cccc(N/C(=N\C(=O)c2ccc(Cl)cc2)Nc2cc(F)cc(Cl)c2)n1 [Compound A-130]	< 10	< 10
CCS(=O)(=O)Nc1cccc(N/C(=N\C(=O)c2ccc(Cl)cc2)NCc2ccc(Cl)cc2F)n1 [Compound A-132]	< 10	< 10
O=C(N=C(Nc1cc(F)cc(Cl)c1)Nc1cccc(NS(=O)(=O)CC(F)(F)F)n1)c1ccc(Cl)cc1 [Compound A-135]	< 10	< 10
O=C(/N=C(/NCc1ccc(Cl)cc1F)Nc1cccc(NS(=O)(=O)CC(F)(F)F)n1)c1ccc(Cl)cc1 [Compound A-136]	< 10	< 10
O=C(/N=C(/NCc1ccc(Cl)cc1F)Nc1cccc(NS(=O)(=O)c2ccccn2)n1)c1ccc(Cl)cc1 [Compound A-137]	< 10	> 10
N#Cc1ccccc1S(=O)(=O)Nc1cccc(N/C(=N\C(=O)c2ccc(Cl)cc2)NCc2ccc(Cl)cc2F)n1 [Compound A-138]	< 10	< 10
CC(=O)Nc1cccc(NC(=NC(=O)c2ccc(Cl)cc2)Nc2cc(F)cc(Cl)c2)n1 [Compound A-140]	< 10	> 10
CC(C)(C)CN/C(=N/C(=O)c1ccc(Cl)cc1)Nc1cccc(NS(=O)(=O)c2ccccc2C#N)n1 [Compound A-141]	< 10	< 10
N#Cc1ccccc1S(=O)(=O)Nc1cccc(NC(=NC(=O)c2ccc(Cl)cc2)Nc2cc(F)cc(Cl)c2)n1 [Compound A-142]	< 10	< 10
Cc1noc(C)c1S(=O)(=O)Nc1cccc(N/C(=N\C(=O)c2ccc(Cl)cc2)NCc2ccc(Cl)cc2F)n1 [Compound A-146]	< 10	< 10
O=C(N=C(Nc1cc(F)cc(Cl)c1)Nc1cccc(NS(=O)(=O)c2cccnc2)n1)c1ccc(Cl)cc1 [Compound A-147]	< 10	< 10
O=C(/N=C(/NCc1ccc(Cl)cc1F)Nc1cccc(NS(=O)(=O)c2cccnc2)n1)c1ccc(Cl)cc1 [Compound A-148]	< 10	< 10
O=C(/N=C(/NCc1ccccc1C(F)(F)F)Nc1cccc(NS(=O)(=O)CC(F)(F)F)n1)c1ccc(F)c(F)c1 [Compound A-149]	< 10	< 10
CCS(=O)(=O)Nc1cccc(N/C(=N\C(=O)c2ccc(F)c(F)c2)NCc2ccccc2C(F)(F)F)n1 [Compound A-150]	< 10	> 10
N#CCS(=O)(=O)Nc1cccc(N/C(=N\C(=O)c2ccc(F)c(F)c2)NCc2ccccc2C(F)(F)F)n1 [Compound A-151]	< 10	< 10

Now from value to compound, other results behind:

IC50 (F1F0-ATPase) [µM]	SMILES	EC50 (Ramos cells) [µM]
< 10	CCS(=O)(=O)Nc1cccc(N/C(=N\C(=O)c2ccc(Cl)cc2)NCC(C)(C)C)n1 [Compound A-131]	< 10
< 10	CC(C)(C)CN/C(=N/C(=O)c1ccc(Cl)cc1)Nc1cccc(NS(=O)(=O)c2ccccc2)n1 [Compound A-133]	> 10
< 10	CC(C)(C)CN/C(=N/C(=O)c1ccc(Cl)cc1)Nc1cccc(NS(=O)(=O)CC(F)(F)F)n1 [Compound A-134]	< 10
> 10	CC(C)(C)CN/C(=N/C(=O)c1ccc(Cl)cc1)Nc1cccc(NC(=O)C(C)(C)C)n1 [Compound A-139]	> 10
< 10	CC(=O)Nc1cccc(N/C(=N\C(=O)c2ccc(Cl)cc2)NCC(C)(C)C)n1 [Compound A-143]	< 10
< 10	CC(C)(C)CN/C(=N/C(=O)c1ccc(Cl)cc1)Nc1cccc(NS(=O)(=O)c2cccnc2)n1 [Compound A-144]	> 10
> 10	Cn1cnc(S(=O)(=O)Nc2cccc(N/C(=N\C(=O)c3ccc(Cl)cc3)NCC(C)(C)C)n2)c1 [Compound A-145]	> 10
